{"source": "patent US20240382564A1", "about": "“Methods and Compositions for Treating Muscular Dystrophy and Memory Impairment” (Allysta Pharmaceuticals, Inc., priority 2023, published 2024)", "key": {"D2.mdx mice [1]": {"tested_on": "D2.mdx mice", "experiment": "In-vitro diaphragm force", "format": "in vivo, mouse", "experimental": "(§1) D2.mdx mice were treated with ALY688 at two different dosages; high dose (HD; 15 mg/kg body weight/day) or low dose (LD; 3 mg/kg body weight/day) dissolved in saline. A separate group of mice were treated with saline alone (VEH, vehicle). Treatment was provided via subscapular subcutaneous injections from 7 days of age to 28-30 days. […] At 28-30 days of age, mice were anaesthetized with isoflurane vaporized in medical air (21% oxygen) at a 2 L/min flow rate. Due to tissue limitations in limb muscle, certain measures were performed separately in tibialis anterior and quadriceps across several phases of breeding. […]\nA silk suture was attached to the central tendons and the ribs and secured in a bath with oxygenated Ringers solution containing (in mM) 121 NaCl, 5 KCl, 1.8 CaCl2, 0.5 MgCl2, 0.4 NaHPO4, 24 NaHCO3, 5.5 glucose and 0.1 EDTA; pH 7.3 (95% O2/5% CO2) maintained at 25° C. with ribs secured to the force transducer with an s-hook and central tendon to the lever arm. […] After the force-frequency protocol was assessed, a 5 minute rest period was provided before a fatiguing protocol was performed (70 Hz for 350 ms every 2 seconds for 5 minutes). Recovery from fatigue was assessed at 5-, 10- and 15-minutes post fatigue at the frequency that elicited maximum force in the force-frequency protocol. […]"}, "D2.mdx mice [2]": {"tested_on": "D2.mdx mice", "experiment": "In-situ quadriceps force", "format": "in vivo, mouse", "experimental": "as §1\nBody temperature was maintained using an overhead heat lamp. […] Optimal resting length (L0) was determined using single twitches (pulse width=0.2 ms) at varying muscle lengths at the maximal stimulation current. Force was assessed across increasing frequencies (1, 40, 60, 80, 100, 120 Hz) using a biphasic stimulator (Model 710B, Aurora Scientific, Inc., ON, Canada), with one minute rest between each frequency. […] Recovery from fatigue was assessed 5, 10 and 15 minutes after the last contraction of the fatigue protocol at the frequency that elicited max force. Data were analyzed using Dynamic Muscle Control Data Acquisition software (Aurora Scientific, Inc) and normalized to quadriceps weight in mg."}}, "note": "Where no end group is shown, it is not given here. [ ]: non-standard residue; d: D form. Nva = CCC[C@H](N)C(=O)O"}
{"substance": "[dN]IP[Nva]LY[dS]FA[dS]-NH2 [ALY688]", "values": [{"measurement": "muscle force production, change", "setting": "D2.mdx mice [1]; diaphragm strips, both doses", "value": "−2.3% to −43.0"}, {"measurement": "recovery from fatigue, change", "setting": "D2.mdx mice [1]; diaphragm, high dose, printed range also covers quadriceps low dose", "value": "−5.3% to −50.9"}, {"measurement": "muscle force production", "setting": "D2.mdx mice [2]; both doses", "value": "no effect"}, {"measurement": "recovery from fatigue, change", "setting": "D2.mdx mice [2]; low dose, printed range also covers diaphragm high dose", "value": "−5.3% to −50.9"}]}
